Values after ≈ are worked out from the molar mass of the structure shown.
How the values were obtained:
in vitro = conditions: human, liver microsomes
physchem = conditions: SGF buffer

CLint scaled at 0.5 h (in vitro): > 1.1 L/h/kg
solubility (physchem): 0.35 mg/mL (≈ 687 µM)
Structure (SMILES): COc1cccc(F)c1-c1nccc(C(=O)Nc2cc(F)c3c(cnn3C)c2N2C[C@@H](N)C[C@H]2CO)n1

From ChEMBL document CHEMBL5223170, “Potent and Selective Biaryl Amide Inhibitors of Hematopoietic Progenitor Kinase 1 (HPK1)” (ACS Med Chem Lett, 2023)
